Measurements: patent US7807676B2, “Diketo-Piperazine and Piperidine derivatives as antiviral agents” (priority 2006, dated 2010)
pEC50: −log10 of the molar value. Structures can show the parent of a compound that is named as a salt.

Tested on: HIV-1 single-round infectious reporter virus
Assay: Single-round infectious HIV-1 luciferase reporter virus infection of HeLa CD4 cells (antiviral EC50)
Format: cell-based
Details: Human immunodeficiency virus 1, HeLa, read-out: EC50 Group from Table 3
Protocol: • Virus production—Human embryonic Kidney cell line, 293T, was propagated in Dulbecco's Modified Eagle Medium (Invitrogen, Carlsbad, Calif.) containing 10% fetal Bovine serum (FBS, Sigma, St. Louis, Mo.). • Virus infection—Human epithelial cell line, HeLa, expressing the HIV-1 receptor CD4 was propagated in Dulbecco's Modified Eagle Medium (Invitrogen, Carlsbad, Calif.) containing 10% fetal Bovine serum (FBS, Sigma, St. Louis, Mo.) and supplemented with 0.2 mg/mL Geneticin (Invitrogen, Carlsbad, Calif.). Virus-Single-round infectious reporter virus was produced by co-transfecting human embryonic Kidney 293 cells with an HIV-1 envelope DNA expression vector and a proviral cDNA containing an envelope deletion mutation and the luciferase reporter gene inserted in place of HIV-1 nef sequences (Chen et al, Ref. 41). Transfections were performed using lipofectAMINE PLUS reagent as described by the manufacturer (Invitrogen, Carlsbad, Calif.). Experiment • 1. HeLa CD4 cells were plated in 96 well plates at a cell density of 1×10^4 cells per well in 100 μl Dulbecco's Modified Eagle Medium containing 10% fetal Bovine serum and incubated overnight. • 2. Compound was added in a 2 μl dimethylsulfoxide solution, so that the final assay concentration would be ≦10 μM. • 3. 100 μl of single-round infectious reporter virus in Dulbecco's Modified Eagle Medium was then added to the plated cells and compound at an approximate multiplicity of infection (MOI) of 0.01, resulting in a final volume of 200 μl per well. • 4. Virally-infected cells were incubated at 37 degrees Celsius, in a CO2 incubator, and harvested 72 h after infection. • 5. Viral infection was monitored by measuring luciferase expression from viral DNA in the infected cells using a luciferase reporter gene assay kit, as described by the manufacturer (Roche Molecular Biochemicals, Indianapolis, Ind.). Infected cell supernatants were removed and 50 μl of lysis buffer was added per well. After 15 minutes, 50 μl of freshly-reconstituted luciferase assay reagent was added per well. Luciferase activity was then quantified by measuring luminescence using a Wallac microbeta scintillation counter. • 6. The percent inhibition for each compound was calculated by quantifying the level of luciferase expression in cells infected in the presence of each compound as a percentage of that observed for cells infected in the absence of compound and subtracting such a determined value from 100. • 7. An EC50 provides a method for comparing the antiviral potency of the compounds of this disclosure. The effective concentration for fifty percent inhibition (EC50) was calculated with the Microsoft Excel Xlfit curve fitting software. For each compound, curves were generated from percent inhibition calculated at 10 different concentrations by using a four parameter logistic model (model 205). Table 3 is the key for the data in Table 4. Results

SMILES	pEC50
O=C(C(=O)N1CCN(c2nncn2-c2ccccc2)CC1)c1c[nH]c2c(-n3ccnn3)ncc(O)c12 [A-43]	> 6.30
COc1cnc(-n2cnc(C)n2)c2[nH]cc(C(=O)C(=O)N3CCN(C4=C(c5ccccc5)C(=O)c5ccccc54)CC3)c12 [D-7]	> 6.30
COc1ccnc2[nH]cc(C(=O)C(=O)N3CCN(c4nnnn4-c4ccccc4)CC3)c12 [A-11]	> 6.30
C[C@H]1CN(c2nnnn2-c2ccccc2)CCN1C(=O)C(=O)c1c[nH]c2c(-n3ccnn3)ncc(F)c12 [A-15]	> 6.30
COc1cnc(-c2cc(C(=O)NCCCN(C)C)[nH]n2)c2[nH]cc(C(=O)C(=O)N3CCN(c4nnnn4-c4ccccc4)CC3)c12 [B-15, N-(3-(dimethylamino)propyl)-3-(4-methoxy-3-(2-oxo-2-(4-(1-phenyl-1H-tetrazol-5-yl)piperazin-1-yl)acetyl)-1H-pyrrolo[2,3-c]pyridin-7-yl)-1H-pyrazole-5-carboxamide.TFA]	> 6.30
COc1cnc(-c2cc(CNCCc3ccncc3)[nH]n2)c2[nH]cc(C(=O)C(=O)N3CCN(c4nnnn4-c4ccccc4)CC3)c12 [B-27, 1-(4-methoxy-7-(5-((2-(pyridin-4-yl)ethylamino)methyl)-1H-pyrazol-3-yl)-1H-pyrrolo[2,3-c]pyridin-3-yl)-2-(4-(1-phenyl-1H-tetrazol-5-yl)piperazin-1-yl)ethane-1,2-dione TFA]	> 6.30
COc1cnc(-n2cnc(NC(=O)C(C)(C)C)n2)c2[nH]cc(C(=O)C(=O)N3CCN(c4nnnn4-c4ccccn4)CC3)c12 [B-80]	> 6.30
COc1cnc(-c2cc(C(C)(C)O)[nH]n2)c2[nH]cc(C(=O)C(=O)N3CCN(c4nnnn4-c4ccccn4)CC3)c12 [B-68]	> 6.30
O=C(C(=O)N1CCN([C@H]2CCCC[C@H]2c2ccccc2)CC1)c1c[nH]c2c(-n3ccnn3)ncc(F)c12 [A-19]	> 6.30
O=C(C(=O)N1CCN(c2nnnn2-c2ccccc2)CC1)c1c[nH]c2c(-c3cc(C(=O)N4CC[C@@H](O)C4)[nH]n3)ncc(F)c12 [F-3]	> 6.30
COc1cnc(-n2cnc(C)n2)c2[nH]cc(C(=O)C(=O)N3[C@H](C)CN(c4nnnn4-c4ccccc4)C[C@@H]3C)c12 [A-73]	> 6.30
CN(C)c1cc(N2CCN(C(=O)C(=O)c3c[nH]c4c(-n5ccnn5)ncc(F)c34)CC2)c(-c2ccccc2)nn1 [G-14a]	> 6.30
COc1cnc(-c2cc(C(=O)NCCN3CCCC3)[nH]n2)c2[nH]cc(C(=O)C(=O)N3CCN(c4nnnn4-c4ccccc4)CC3)c12 [B-11, 3-(4-methoxy-3-(2-oxo-2-(4-(1-phenyl-1H-tetrazol-5-yl)piperazin-1-yl)acetyl)-1H-pyrrolo[2,3-c]pyridin-7-yl)-N-(2-(pyrrolidin-1-yl)ethyl)-1H-pyrazole-5-carboxamide.TFA]	> 6.30
COc1cnc(-n2ccnn2)c2[nH]cc(C(=O)C(=O)N3CCN(c4nnnn4-c4ccccn4)CC3)c12 [A-59]	> 6.30
COCCN1CCN(C(=O)c2cc(-c3ncc(F)c4c(C(=O)C(=O)N5CCN(c6nnnn6-c6ccccc6)CC5)c[nH]c34)n[nH]2)CC1 [F-15]	> 6.30
COc1cnc(Nc2ccncn2)c2[nH]cc(C(=O)C(=O)N3CCN(c4nnnn4-c4ccccn4)CC3)c12 [B-92]	> 6.30
COc1cnc(-n2cnc(C)n2)c2[nH]cc(C(=O)C(=O)N3CCN(c4snnc4-c4ccccc4)C[C@H]3C)c12 [D-14]	> 6.30
CCOc1nccnc1N1CCN(C(=O)C(=O)c2c[nH]c3c(-n4cnc(C)n4)ncc(OC)c23)CC1 [D-17]	> 6.30

SMILES	pEC50
Cc1nc(N2CCN(C(=O)C(=O)c3c[nH]c4c(-n5ccnn5)ncc(F)c34)CC2)n(-c2ccccc2)n1 [G-32]	> 6.30
CC(=O)Nc1ncc(F)c2c(C(=O)C(=O)N3CCN(c4nnnn4-c4ccccc4)CC3)c[nH]c12 [B-18, N-(4-fluoro-3-(2-oxo-2-(4-(1-phenyl-1H-tetrazol-5-yl)piperazin-1-yl)acetyl)-1H-pyrrolo[2,3-c]pyridin-7-yl)acetamide]	< 6.30
Cc1ccnn1-c1ncc(F)c2c(C(=O)C(=O)N3CCN(c4nnnn4-c4ccccc4)CC3)c[nH]c12 [B-3, 1-(4-fluoro-7-(5-methyl-1H-pyrazol-1-yl)-1H-pyrrolo[2,3-c]pyridin-3-yl)-2-(4-(1-phenyl-1H-tetrazol-5-yl)piperazin-1-yl)ethane-1,2-dione]	> 6.30
O=C(C(=O)N1CCN(c2ccccc2-c2ccccc2)CC1)c1c[nH]c2c(-n3ccnn3)ncc(F)c12 [A-4]	> 6.30
O=C(C(=O)N1CCN(N2C(=O)CC2c2ccccc2)CC1)c1c[nH]c2c(-n3ccnn3)ncc(F)c12 (stereo not drawn) [A-23]	< 6.30
COc1cnc(-c2cc(C(=O)NCCN3CCNCC3)[nH]n2)c2[nH]cc(C(=O)C(=O)N3CCN(c4nnnn4-c4ccccc4)CC3)c12 [B-14, 3-(4-methoxy-3-(2-oxo-2-(4-(1-phenyl-1H-tetrazol-5-yl)piperazin-1-yl)acetyl)-1H-pyrrolo[2,3-c]pyridin-7-yl)-N-(2-(piperazin-1-yl)ethyl)-1H-pyrazole-5-carboxamide.TFA]	> 6.30
O=C(C(=O)N1CCN(c2nonc2-c2ccccc2)CC1)c1c[nH]c2c(-n3ccnn3)ncc(F)c12 [G-1b]	> 6.30
C[C@@H]1CN(c2nn(C)c(=O)cc2-c2ccccc2)CCN1C(=O)C(=O)c1c[nH]c2c(-n3ccnn3)ncc(F)c12 [D-36]	< 6.30
COc1cnc(-c2ccn(CC(=O)O)n2)c2c1c(C(=O)C(=O)N1CCN(c3nnnn3-c3ccccn3)CC1)cn2CC(=O)O [B-74]	< 6.30
CCOC(=O)CCCCC(=O)c1cccnc1N1CCN(C(=O)C(=O)c2c[nH]c3c(-n4ccnn4)ncc(F)c23)CC1 [D-42]	< 6.30
COc1cnc(-n2cnc(C)n2)c2[nH]cc(C(=O)C(=O)N3CCN(c4cn[nH]c4-c4ccccn4)CC3)c12 [E-17, 1-(4-methoxy-7-(3-methyl-1H-1,2,4-triazol-1-yl)-1H-pyrrolo[2,3-c]pyridinyl-3-yl)-2-(4-(3-(pyridin-2-yl)-1H-pyrazol-4-yl)piperazin-1-yl)ethane-1,2-dione]	> 6.30
O=C(C(=O)N1CCN(C2=NS(=O)(=O)N=C2c2ccccc2)CC1)c1c[nH]c2c(-n3ccnn3)ncc(F)c12 [A-55]	> 6.30
COc1cnc(-c2ccc(N3CCN(C(=O)NC(C)(C)C)CC3)cc2)c2[nH]cc(C(=O)C(=O)N3CCN(c4nnnn4-c4ccccn4)CC3)c12 [B-86]	> 6.30
O=C(C(=O)N1CCN(c2nnnn2-c2ccccc2)CC1)c1c[nH]c2c(-c3cc(C(=O)N4CCSC4)[nH]n3)ncc(F)c12 [F-10]	> 6.30
COc1cnc(-c2cc(C(=O)NCCCN3CCN(C)CC3)[nH]n2)c2[nH]cc(C(=O)C(=O)N3CCN(c4nnnn4-c4ccccc4)CC3)c12 [B-10, 3-(4-methoxy-3-(2-oxo-2-(4-(1-phenyl-1H-tetrazol-5-yl)piperazin-1-yl)acetyl)-1H-pyrrolo[2,3-c]pyridin-7-yl)-N-(3-(4-methylpiperazin-1-yl)propyl)-1H-pyrazole-5-carboxamide.TFA]	> 6.30
O=C(C(=O)N1CCN(c2ccnn2-c2ccccn2)CC1)c1c[nH]c2c(-n3ccnn3)ncc(F)c12 [E-14, 1-(4-fluoro-7-(1H-1,2,3-triazol-1-yl)-1H-pyrrolo[2,3-c]pyridinyl-3-yl)-2-(4-(1-(pyridin-2-yl)-1H-pyrazol-5-yl)piperazin-1-yl)ethane-1,2-dione]	> 6.30
COc1cnc(-n2cnc(C)n2)c2[nH]cc(C(=O)C(=O)N3CCN(c4nnnn4-c4cccnn4)CC3)c12 [E-12d]	> 6.30
COc1cnc(-n2cnc(C)n2)c2[nH]cc(C(=O)C(=O)N3CCN(c4nccn4-c4ccccc4)CC3)c12 [A-54]	> 6.30
